Where “and” joins values, the source holds several entries; their conditions need not be identical. Equal values may be shown once. Inconclusive results and toxic doses are left out. Rule for the calls: active = survival T/C of 150% or more; inactive = T/C below 125% in these data. Peptide text beside a SMILES is read from it. * marks the point of attachment. Boc = CC(C)(C)OC(=O)*; OtBu = CC(C)(C)O*; NHNH2 = NN*
Tested on: P388 leukemia ip, CD2F1 mice, survival T/C
Assay: NCI In Vivo Anticancer Drug Screen. Data for tumor model P388 Leukemia (intraperitoneal) in CD2F1 (CDF1) mice
Conditions: endpoint: median survival time, higher = longer survival
Summary of the method: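 Mice carrying the transplanted tumor received test compound or vehicle. Survival was recorded in each group, and the value is the treated-group measurement divided by that of the vehicle-treated control group.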

[1] = dose: 6.25 mg/kg/injection, schedule: Q01DX001 (ip), vehicle: saline with Tween-80
[2] = dose: 12.5 mg/kg/injection, schedule: Q01DX001 (ip), vehicle: saline with Tween-80
[3] = dose: 25.0 mg/kg/injection, schedule: Q01DX001 (ip), vehicle: saline with Tween-80
[4] = dose: 50.0 mg/kg/injection, schedule: Q01DX005 (ip), vehicle: saline with Tween-80
[5] = dose: 200.0 mg/kg/injection, schedule: Q01DX005 (ip), vehicle: saline with Tween-80
[6] = dose: 50.0 mg/kg/injection, schedule: Q01DX009 (ip), vehicle: saline with Tween-80
[7] = dose: 100.0 mg/kg/injection, schedule: Q01DX009 (ip), vehicle: saline with Tween-80
[8] = dose: 60.0 mg/kg/injection, schedule: Q01DX005 (ip), vehicle: saline with Tween-80
[9] = dose: 120.0 mg/kg/injection, schedule: Q01DX005 (ip), vehicle: saline with Tween-80
[10] = dose: 240.0 mg/kg/injection, schedule: Q01DX005 (ip), vehicle: saline with Tween-80
[11] = dose: 50.0 mg/kg/injection, schedule: Q01DX009 (ip), vehicle: Klucel (hydroxypropylcellulose) (HPC)
[12] = dose: 100.0 mg/kg/injection, schedule: Q01DX009 (ip), vehicle: Klucel (hydroxypropylcellulose) (HPC)
[13] = dose: 200.0 mg/kg/injection, schedule: Q01DX009 (ip), vehicle: Klucel (hydroxypropylcellulose) (HPC)
[14] = dose: 12.5 mg/kg/injection, schedule: Q01DX009 (ip), vehicle: Klucel (hydroxypropylcellulose) (HPC)
[15] = dose: 25.0 mg/kg/injection, schedule: Q01DX009 (ip), vehicle: Klucel (hydroxypropylcellulose) (HPC)
[16] = dose: 50.0 mg/kg/injection, schedule: Q01DX005 (ip), vehicle: Klucel (hydroxypropylcellulose) (HPC)
[17] = dose: 100.0 mg/kg/injection, schedule: Q01DX005 (ip), vehicle: Klucel (hydroxypropylcellulose) (HPC)
[18] = dose: 100.0 mg/kg/injection, schedule: Q01DX005 (ip), vehicle: saline with Tween-80

Measured: T/C

Ic1sc(I)c(I)c1I
inactive: [1] 100 % of control | [2] 100 % of control | [3] 105 % of control

CCN(CC)C(=O)Nc1ccc(O)c(C(=O)O)c1
inactive: dose: 100.0 mg/kg/injection, schedule: Q01DX001 (ip), vehicle: saline with Tween-80 100 % of control | dose: 200.0 mg/kg/injection, schedule: Q01DX001 (ip), vehicle: saline with Tween-80 100 % of control | dose: 400.0 mg/kg/injection, schedule: Q01DX001 (ip), vehicle: saline with Tween-80 100 % of control

CC1(C)C2CCC1(C)C(N1C(=O)N=NC1=O)C2 (stereo unspecified)
inactive: dose: 12.5 mg/kg/injection, schedule: Q01DX005 (ip), vehicle: saline with Tween-80 100 % of control | dose: 25.0 mg/kg/injection, schedule: Q01DX005 (ip), vehicle: saline with Tween-80 103 % of control | [4] 103 % of control and 91 % of control | [5] 104 % of control

Cc1ccc(-c2cnc3c(n2)c(=O)[nH]c(=O)n3C)cc1
inactive: dose: 100.0 mg/kg/injection, schedule: Q04DX003 (ip), vehicle: Klucel (hydroxypropylcellulose) (HPC) 103 % of control | dose: 200.0 mg/kg/injection, schedule: Q04DX003 (ip), vehicle: Klucel (hydroxypropylcellulose) (HPC) 98 % of control

O=[N+]([O-])/C=C/c1ccccc1
inactive: dose: 5.0 mg/kg/injection, schedule: Q01DX009 (ip), vehicle: saline sonified 100 % of control | dose: 10.0 mg/kg/injection, schedule: Q01DX009 (ip), vehicle: saline sonified 100 % of control | dose: 20.0 mg/kg/injection, schedule: Q01DX009 (ip), vehicle: saline sonified 100 % of control

CN(C)c1ccc(N=Nc2ccc3ccc4cccc5ccc2c3c45)cc1
inactive: [6] 93 % of control | [7] 89 % of control | dose: 200.0 mg/kg/injection, schedule: Q01DX009 (ip), vehicle: saline with Tween-80 102 % of control

CCCNC(=NC)c1ccc(NC(=O)c2ccc(C(=O)Nc3ccc(C(=NC)NCCC)cc3)cc2)cc1
inactive: dose: 5.2 mg/kg/injection, schedule: Q01DX010 (ip), vehicle: saline 109 % of control | dose: 18.0 mg/kg/injection, schedule: Q01DX010 (ip), vehicle: saline 118 % of control

N#CC(=O)Nc1ccc(F)cc1
inactive: dose: 3.75 mg/kg/injection, schedule: Q01DX005 (ip), vehicle: saline with Tween-80 102 % of control | dose: 7.5 mg/kg/injection, schedule: Q01DX005 (ip), vehicle: saline with Tween-80 94 % of control | dose: 15.0 mg/kg/injection, schedule: Q01DX005 (ip), vehicle: saline with Tween-80 100 % of control and 107 % of control

CCC(C)C(NC(=O)CNC(=O)OC(C)(C)C)C(=O)NC(C(=O)NC(CCC(=O)OC(C)(C)C)C(=O)NN)C(C)C (stereo unspecified) (Boc-GIVE(OtBu)-NHNH2; configuration not given here)
inactive: [1] 100 % of control | [2] 100 % of control | [3] 95 % of control

Cc1c(NC(=O)CCl)c(=O)oc2c(C)c3occc(=O)c3cc12
inactive: dose: 30.0 mg/kg/injection, schedule: Q01DX005 (ip), vehicle: saline with Tween-80 100 % of control | [8] 89 % of control and 97 % of control | [9] 90 % of control | [10] 99 % of control

CCCOc1ccc(-c2nc(-c3ccc([N+](=O)[O-])cc3)cs2)cc1
inactive: [11] 113 % of control | [12] 104 % of control | [13] 104 % of control

C1CCN(P(N2CCCCC2)N2CCCCC2)CC1
inactive: dose: 25.0 mg/kg/injection, schedule: Q04DX003 (ip), vehicle: saline with Tween-80 100 % of control | dose: 50.0 mg/kg/injection, schedule: Q04DX003 (ip), vehicle: saline with Tween-80 100 % of control | dose: 100.0 mg/kg/injection, schedule: Q04DX003 (ip), vehicle: saline with Tween-80 102 % of control and 104 % of control

C[n+]1ccc2ccccc2c1-c1c2ccccc2cc[n+]1C
inactive: dose: 12.5 mg/kg/injection, schedule: Q01DX001 (ip), vehicle: saline 115 % of control | dose: 25.0 mg/kg/injection, schedule: Q01DX001 (ip), vehicle: saline 101 % of control | dose: 50.0 mg/kg/injection, schedule: Q01DX001 (ip), vehicle: saline 99 % of control

NC1=N[C@H]2CS[C@@H](CCCCC(=O)ON3C(=O)CCC3=O)[C@H]2N1
inactive: dose: 60.0 mg/kg/injection, schedule: Q01DX005 (ip), vehicle: saline 98 % of control | dose: 120.0 mg/kg/injection, schedule: Q01DX005 (ip), vehicle: saline 100 % of control | dose: 240.0 mg/kg/injection, schedule: Q01DX005 (ip), vehicle: saline 98 % of control

N#CC1(NC(=O)C(Cl)Cl)c2ccccc2-c2ccccc21
inactive: [8] 100 % of control | [9] 93 % of control

C=C(CN1CCCC1)C(=O)c1ccc(OC)cc1
inactive: dose: 0.93 mg/kg/injection, schedule: Q01DX005 (ip), vehicle: saline 97 % of control | dose: 1.87 mg/kg/injection, schedule: Q01DX005 (ip), vehicle: saline 117 % of control | dose: 3.75 mg/kg/injection, schedule: Q01DX005 (ip), vehicle: saline 108 % of control

CC(C)(C)OOC(=O)C1CCCCC1
inactive: [8] 100 % of control | [9] 103 % of control | [10] 92 % of control

CC(=O)c1cc([N+](=O)[O-])c(N)s1
inactive: [14] 111 % of control | [15] 111 % of control | [11] 95 % of control | [12] 107 % of control

CC1SCCCS1
inactive: dose: 50.0 mg/kg/injection, schedule: Q01DX009 (ip), vehicle: saline 98 % of control | dose: 100.0 mg/kg/injection, schedule: Q01DX009 (ip), vehicle: saline 98 % of control | dose: 200.0 mg/kg/injection, schedule: Q01DX009 (ip), vehicle: saline 97 % of control | dose: 400.0 mg/kg/injection, schedule: Q01DX009 (ip), vehicle: saline 97 % of control

CC(C)(C)C(CO)CNc1ccccc1 (stereo unspecified)
inactive: [11] 110 % of control | [12] 110 % of control | [13] 107 % of control

O=NN(C(=O)NC1CCOCC1)C1CCOCC1
inactive: dose: 25.0 mg/kg/injection, schedule: Q01DX001 (ip), vehicle: distilled water + Tween-80 101 % of control | dose: 50.0 mg/kg/injection, schedule: Q01DX001 (ip), vehicle: distilled water + Tween-80 101 % of control | dose: 100.0 mg/kg/injection, schedule: Q01DX001 (ip), vehicle: distilled water + Tween-80 102 % of control | dose: 200.0 mg/kg/injection, schedule: Q01DX001 (ip), vehicle: distilled water + Tween-80 105 % of control | dose: 400.0 mg/kg/injection, schedule: Q01DX001 (ip), vehicle: distilled water + Tween-80 102 % of control

CN(C)CSCN(C)C
inactive: dose: 25.0 mg/kg/injection, schedule: Q01DX009 (ip), vehicle: saline with Tween-80 103 % of control and 93 % of control | [6] 100 % of control and 113 % of control | [7] 102 % of control and 123 % of control

CNC(=O)c1nn(-c2ccccc2)c2oc(=O)cc(C)c12
inactive: [16] 95 % of control | [17] 87 % of control | dose: 200.0 mg/kg/injection, schedule: Q01DX005 (ip), vehicle: Klucel (hydroxypropylcellulose) (HPC) 87 % of control

COc1ccc(-c2cc(C(=O)Nc3cc(C(F)(F)F)cc(C(F)(F)F)c3)c3ccccc3n2)cc1
inactive: [4] 91 % of control | dose: 100.0 mg/kg/injection, schedule: Q01DX005 (ip), vehicle: DMSO 118 % of control | [18] 89 % of control | dose: 200.0 mg/kg/injection, schedule: Q01DX005 (ip), vehicle: DMSO 118 % of control | [5] 93 % of control | dose: 400.0 mg/kg/injection, schedule: Q01DX005 (ip), vehicle: DMSO 96 % of control

CC(C)(C)NC1=C([N+](=O)[O-])CCCC1
inactive: [4] 93 % of control | [18] 93 % of control

O=c1n(-c2ccccc2)c(=O)n2n1C1CC3c4ccccc4C1C32 (stereo unspecified)
inactive: dose: 25.0 mg/kg/injection, schedule: Q01DX005 (ip), vehicle: Klucel (hydroxypropylcellulose) (HPC) 101 % of control | [16] 97 % of control | [17] 94 % of control

Cc1ccc2nc(NC(=S)SSC(=S)Nc3nc4ccc(C)cc4s3)sc2c1
inactive: dose: 6.25 mg/kg/injection, schedule: Q01DX009 (ip), vehicle: Klucel (hydroxypropylcellulose) (HPC) 107 % of control | [14] 108 % of control | [15] 94 % of control

— PubChem BioAssay AID330 (DTP/NCI, 2004)
